Experimental data: PMC4192597, “Antimicrobials, Stress and Mutagenesis” (PLoS Pathogens, 2014)
Values after ≈ are worked out from the molar mass of the structure shown.

Experiments:
[1] = test system: E. coli stress response genes (strain MG1655); assay: Relative gene expression of stress response genes by quantitative real-time PCR; assay type: cell-based, Escherichia coli; conditions: qPCR, 20 minutes exposure vs non-treated bacteria; as to Result, cpxR: key: NDE: non-differentially expressed, p-value ≥ 0,05; UP: upregulated, p-value ≤ 0,05; DOWN: downregulated, p-value ≤ 0,05; as to Result, oxyR: key: NDE: non-differentially expressed, p-value ≥ 0,05; UP: upregulated, p-value ≤ 0,05; DOWN: downregulated, p-value ≤ 0,05; as to Result, rpoE: key: NDE: non-differentially expressed, p-value ≥ 0,05; UP: upregulated, p-value ≤ 0,05; DOWN: downregulated, p-value ≤ 0,05
E. coli MG1655 [2] = assay: Killing by AMPs under thiourea ROS scavenger; assay type: cell-based, Escherichia coli; conditions: thiourea 100 mM (Figure S3)
Procedure: SOS and rpoS mediated mutagenesis are well supported by empirical work, and it was recently proposed that antibiotics promote ROS formation and kill bacterial by lethal induction of hydroxyl-mediated DNA damage. Here we explored this new and debated proposition also for AMPs. We assessed AMP killing curves in E. coli MG1655 in the presence of the ROS scavenger thiourea (100 mM) and used Kanamycin as positive control.
Kanamycin was used a positive control. The procedure was the same as described in this work elsewhere for MIC50 (Fig. S3).

E. coli MG1655 [3] = assay: Minimal inhibitory concentration (MIC), micro-dilution; assay type: cell-based, Escherichia coli; conditions: inoculum 2×10^8 cfu/ml, 24 h, liquid MH medium, 37°C
E. coli MG1655 [4] = assay: microbe, parasite or virus in culture; assay type: cell-based, Escherichia coli; conditions: 4 hours, 50% reduction of CFUs vs control, Mueller Hinton Broth, 37°C, five replicates, repeated twice
[5] = test system: E. coli stress response genes; conditions: kanamycin 5 μg/ml, ref Kohanski,2007, cited from earlier work
[6] = normalized to arcA, mdoG, tus, Pexiganan 16, Melittin 16, Kanamycin 16, Ciprofloxacin 0.5, Lysozyme 128, Ampicillin 32 μg/ml, three biological replicates

NC[C@H]1O[C@H](O[C@H]2[C@H](O)[C@@H](O[C@H]3O[C@H](CO)[C@@H](O)[C@H](N)[C@H]3O)[C@H](N)C[C@@H]2N)[C@H](O)[C@@H](O)[C@@H]1O [Kanamycin]
Result, cpxA ([1]; REST 2009 randomisation test): NDE
Result, cpxR ([1]; REST 2009 randomisation test): NDE
Result, dinB ([1]; REST 2009 randomisation test): NDE
Result, lexA ([1]; REST 2009 randomisation test): NDE
Result, marR ([1]; REST 2009 randomisation test): NDE
Result, oxyR ([1]; REST 2009 randomisation test): NDE
Result, phoP ([1]; REST 2009 randomisation test): NDE
Result, phoQ ([1]; REST 2009 randomisation test): NDE
Result, recA ([1]; REST 2009 randomisation test): NDE
Result, rpoE ([1]; REST 2009 randomisation test): NDE
Result, rpoS ([1]; REST 2009 randomisation test): NDE
Result, umuC ([1]; REST 2009 randomisation test): NDE
Expression, cpxA (Envelope stress) [1, 6]: 1.069
Expression, cpxR (Envelope stress) [1, 6]: 0.812
Expression, dinB (SOS response) [1, 6]: 1.083
Expression, lexA (SOS response) [1, 6]: 1.302
Expression, marR (Independent multiple antibiotic resistance) [1, 6]: 1.073
Expression, oxyR (Oxidative stress) [1, 6]: 1.333
Expression, phoP (Envelope stress) [1, 6]: 0.94
Expression, phoQ (Envelope stress) [1, 6]: 0.769
Expression, recA (SOS response) [1, 6]: 1.331
Expression, rpoE (Envelope stress) [1, 6]: 1.236
Expression, rpoS (Sigma S response) [1, 6]: 0.967
Expression, umuC (SOS response) [1, 6]: 0.974
killing / sensitivity in the presence of the ROS scavenger thiourea (E. coli MG1655 [2]): reduced sensitivity
MIC (E. coli MG1655 [3]): 2 µg/mL (≈ 4.13 µM)
MIC50 (E. coli MG1655 [4]): 1.6 µg/mL
expression, rpoE (microarray database) ([5]; 30 min): 2.118
expression, marR (microarray database) ([5]; 60 min): 8.767
expression, phoP (microarray database) ([5]; 60 min): 2.411
expression, lexA (microarray database) ([5]; 120 min): 3.48
expression, oxyR (microarray database) ([5]; 120 min): 3.362
